According to patent US10975030B2, “Grp94 selective inhibitors and uses thereof” (University of Kansas, priority 2016, dated 2021):
Like-named read-outs stand apart in the source and are kept apart here.

Legend:
[1] = Anti-proliferation assay (MTS/PMS), MDA-MB-231; format: cell-based; conditions: human, MDA-MB-231 cells, MDA-MB-231, 25 μM
Protocol: (§1) Anti-proliferation Assays. Cells were seeded (2000/well, 100 μL) in 96-well plates and incubated overnight. Following incubation, compounds with varying concentrations in DMSO (1% DMSO final concentration) were added and cells were returned to the incubator for 72 h. After 72 h, the cell viability was determined using an MTS/PMS cell proliferation kit (Promega) per the manufacturer's instructions. Absorption value from 1% DMSO wells were used as 100% proliferation, and values were adjusted accordingly.

[2] = biological target: Grp94 (recombinant cGrp94) (Canis lupus familiaris (Dog) (Canis familiaris), UniProt P41148); test: Fluorescence polarization (FP) assay, cGrp94 with FITC-GDA; format: binding
Protocol: (§2) Fluorescence Polarization. Assay buffer (25 μL, 20 mM HEPES pH 7.3, 50 mM KCl, 5 mM MgCl2, 1 mM DTT, 20 mM Na2MoO4, 0.01% NP-40, and 0.5 mg/mL BGG) was added to 96-well plate (black well, black bottom) followed by the desired compound at the indicated final concentrations in DMSO (1% DMSO final concentration). […] Plates were incubated with rocking for 5 h at 4° C. […] Percent FITC-GDA bound was determined by using the DMSO millipolarization unit (mP) as the 100% bound value and the 0% for FITC-GDA. Kd values were calculated from separate experiments performed in triplicate using GraphPad Prism.

[3] = tested on: MDA-MB-231 cells; test: Wound healing scratch assay, MDA-MB-231; format: cell-based; conditions: 10 μM ('at 10 μM and 5 μM respectively'), 0, 16, 24 h, FIG. 3A
Protocol: (§3) Chemicals and Cell culture. Compounds were dissolved in DMSO and stored at −20° C. until use. The PC3-MM2 and MDA-MB-231 cells were maintained in DMEM (Cellgro) media supplemented with streptomycin (500 μg/mL), penicillin (100 units/mL) and 10% FBS at 37° C. and 5% CO2.
(§4) Wound Healing Scratch Assay. The cells were seeded in a 24-well plate in complete media and allowed to form a monolayer. After monolayer formation, a scratch was introduced with a sterile 0.1-10 μl pipet tip. The media was replaced with fresh media in the absence or presence of the indicated drug concentrations. Photomicrographs were taken at different time points with an Olympus IX71 microscope using a 10x air lens and CellSans Dimensions software. The images were processed with Image J software.

[4] = Anti-proliferation assay (MTS/PMS), PC-3 MM-2; format: cell-based; conditions: human, PC-3 MM-2 cells, PC-3 MM-2, 25 μM
Protocol: as §1

[5] = biological target: Hsp90α (Homo sapiens (Human), UniProt P07900); test: Fluorescence polarization (FP) assay, Hsp90α; format: binding
Protocol: as §2

[6] = tested on: integrin α2, integrin αL, Syne2, VAMP2, Rab10 in PC3-MM2 cells; test: Cell fractionation and Western blot analysis of PC3-MM2 cells; format: cell-based; conditions: 30 μM, 24 h, cytoplasmic (Cyto) fraction, compared to DMSO, FIG. 2A
Protocol: as §3
(§5) Antibodies. The following antibodies were used for western blotting and/or immunofluorescence: goat anti-integrin α L #sc6609, rabbit anti-SYNE2 #sc99066, and rabbit anti-actin #sc1616-R (Santa Cruz Biotech-nology, Santa Cruz, Calif.); rabbit anti-Integrin α 2 #ab181548, rabbit anti-VAMP2 #ab3347 (Abcam, Cambridge, Mass.); Phalloidin 647 #A22287 (Invitrogen, Carlsbad Calif.); rabbit anti-Rab10 #4262S (Cell Signaling Technology, Danvers, Mass.).
Cell fractionation and Western Blot Analysis. […] After sedimenting the cell debris, the protein concentration of each lysate was measured in quadruplicate using the BCA protein assay and bovine serum albumin as the standard. The coefficient of variation was determined for each set of quadruplicate measures and if the variability exceeded 5%, the protein assay was repeated for that set of samples. […]

[7] = tested on: PC-3 MM-2 cells; test: Wound healing scratch assay, PC-3 MM-2; format: cell-based; conditions: 5 μM ('at 10 μM and 5 μM respectively'), 0, 16, 24 h, FIG. 3B
Protocol: as §3, §4

[8] = tested on: PC3-MM2 cells; test: Immunofluorescence / confocal microscopy analysis of PC3-MM2 cells; format: cell-based; conditions: FIG. 2B; for F-actin localization: confocal microscopy, versus DMSO treated cells; for integrin α2 localization: immunofluorescence, versus untreated cells
Protocol: as §3, §5
Immunofluorescence Analysis. For cell imaging, 1 μm-Slide 8 well ibidiTreat IBIDI glass slides were used. PC3-MM2 cells were fixed with freshly made 4% (w/w) paraformaldehyde in PBS for 15 min, permeabilized with 0.1% (w/w) Tween 20 in PBS for 5 min and quenched with 0.1% (w/w) sodium borohydride for 5 min. The sections were blocked with 3% (w/w) BSA in PBS for 1 h and incubated with the primary antibody at a 1:100 concentration in 1% BSA in PBS overnight, prior to incubation with secondary antibody conjugated with Alexa Fluor 568 for 3 h. The sections were counterstained with DAPI and/or with Phalloidin to visualize DNA and filamentous actin (F-actin), respectively. The wells were washed three times with PBS after each step.
Confocal images were acquired using a custom epifluorescent/confocal microscope composed of the following components: an Olympus IX81 inverted spinning disc confocal microscope base (Olympus America, Center Valley, Pa.), a Prior microscope stage for automated image acquisition (Prior Scientific, Rockland, Mass.), an Olympus 60X oil Immersion objective for confocal images (Olympus) and a Hamamatsu Electron Multiplying Charge-Coupled Device (EMCCD) camera (Hamamatsu, Hamamatsu, Shizuoka Prefecture, Japan). Images were captured using the SlideBook acquisition and analysis software, (Intelligent Imaging Innovations (3i), Denver, Colo.).
Images were collected with 8-10 image stacks with a 0.3 micron step size through the cells. Images were processed using Image J software (NIH).

[9] = tested on: Hsp70; test: Western blot of Hsp70 levels; format: cell-based; conditions: compared to 17-AAG (5 μM reference)
Protocol: (§6) Cell Culture. Cell culture was performed as described in the art.^25 Tetracycline-inducible Hek cells stably overexpressing I477N mutant myocilin were grown and maintained in Dulbecco's Modified Eagle's Medium supplemented with 10% fetal bovine serum (Invitrogen, penicillin (100 units/mL), streptomycin ([…]) and 1% GlutaMAX (Invitrogen) at 37 C and 5% CO2. Stably overexpressing cells were selected for using hygromycin B ([…]) (InvivoGen) and G418 ([…]) (Gibco). I477N myocilin expression was induced with tetracycline ([…]) for 48H prior to drug treatment.
(§7) Inhibitor Treatment. Inhibitors were solubilized in DMSO (Sigma Aldrich), and diluted to documented concentrations. Cells were treated drop wise with inhibitors 24H prior to cell harvest. DMSO concentration was diluted to 1% total cell medium volume.
(§8) Cell Harvest. Cell harvest was performed as previously described.^21 24H after inhibitor treatment, culture medium was removed and cells were washed 2× with ice cold PBS. […]
(§9) Western Blotting. Western blot analysis was performed as previously described.^41 Cell lysates were prepared at identical protein concentrations, as determined by BCA analysis, in 2× Laemmli sample buffer (Bio-Rad) and denatured by boiling for 5 min at 100 C. […]

[10] = tested on: Akt; test: Western blot of cytosolic Hsp90 client protein Akt; format: cell-based; conditions: 30 μM (same concentration)
Protocol: as §6, §7, §8, §9

[11] = tested on: I477N mutant myocilin; test: Western blot of I477N mutant myocilin levels in tetracycline inducible HEK cells; format: cell-based; conditions: 30 μM, 24 h, HEK cells over-expressing I477N myocilin
Protocol: as §6, §7, §8, §9

Chain of Grp94 (recombinant cGrp94) (P41148 22-804): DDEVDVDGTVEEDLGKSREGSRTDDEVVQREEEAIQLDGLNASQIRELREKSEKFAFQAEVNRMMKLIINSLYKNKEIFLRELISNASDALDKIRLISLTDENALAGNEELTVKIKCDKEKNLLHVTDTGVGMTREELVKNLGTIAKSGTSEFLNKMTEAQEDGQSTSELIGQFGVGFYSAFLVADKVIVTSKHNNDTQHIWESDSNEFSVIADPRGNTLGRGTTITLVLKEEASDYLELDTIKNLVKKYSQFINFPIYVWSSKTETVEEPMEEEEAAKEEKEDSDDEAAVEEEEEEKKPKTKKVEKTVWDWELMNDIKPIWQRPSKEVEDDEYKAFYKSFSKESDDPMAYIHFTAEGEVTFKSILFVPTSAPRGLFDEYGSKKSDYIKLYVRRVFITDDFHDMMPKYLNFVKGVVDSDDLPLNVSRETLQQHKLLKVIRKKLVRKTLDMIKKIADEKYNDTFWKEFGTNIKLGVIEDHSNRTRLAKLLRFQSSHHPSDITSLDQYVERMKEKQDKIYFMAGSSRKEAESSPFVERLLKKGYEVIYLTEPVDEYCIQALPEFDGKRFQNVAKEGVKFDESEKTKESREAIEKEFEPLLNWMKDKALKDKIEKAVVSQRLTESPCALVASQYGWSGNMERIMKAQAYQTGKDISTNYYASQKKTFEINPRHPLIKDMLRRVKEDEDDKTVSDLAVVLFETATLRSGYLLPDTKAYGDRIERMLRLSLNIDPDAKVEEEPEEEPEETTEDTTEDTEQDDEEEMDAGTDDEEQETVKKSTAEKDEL

| Kd ([2]; apparent Kd, cGrp94 and FITC-GDA, triplicates, ± SEM, read-out: Kd Grp94) [nM] | Kd ([2]; read-out: apparent Kd towards Grp94) [nM] | Kd [5] [µM] | Compound | viability at 72 h, 25 µM [1] [%] | migration of MDA-MB-231 cells [3] | viability at 72 h, 25 µM [4] [%] | levels of integrin α2, integrin αL, Syne2, VAMP2, and Rab10 [6] | migration of PC-3 MM-2 cells [7] | F-actin localization [8] | integrin α2 localization [8] | Hsp70 levels [9] | Akt maturation [10] | mutant myocilin levels [11] |
| --- | --- | --- | --- | --- | --- | --- | --- | --- | --- | --- | --- | --- | --- |
| 720 ± 140 | ~724 | > 100 | NC(=O)c1ccc(-n2cccc2Cc2ccccc2F)cc1N[C@H]1CC[C@H](O)CC1 [Compound 8e, 4-(2-(2-fluorobenzyl)-1H-pyrrol-1-yl)-2-(((1r,4r)-4-hydroxycyclohexyl)amino)benzamide] | > 95 | inhibited migration | > 95 | reduced levels | inhibited migration | formed sporadic patches in the cytoplasm | localized as patches in the cytoplasm |  |  |  |
|  |  |  | NC(=O)c1ccc(-n2cccc2Cc2ccccc2O)cc1N[C@H]1CC[C@H](O)CC1 [Compound 8j, 4-(2-(2-hydroxybenzyl)-1H-pyrrol-1-yl)-2-(((1r,4r)-4-hydroxycyclohexyl)amino)benzamide] | > 95 | inhibited migration | > 95 | reduced levels | inhibited migration | formed sporadic patches in the cytoplasm | localized as patches in the cytoplasm | remained unaffected | did not affect | significant decrease |
